From patent US20210255184A1, “Biosensor Device and Methods” (The New Zealand Institute for Plant and Food Research …, priority 2018, published 2021)
“Also recorded” adds a separate entry of the source.

Tests used:
Or10a/Orco = target: T1, Or10a/Orco (Drosophila melanogaster, UniProt Q9VYZ1); assay: QCM-D sensor, Or10a/Orco liposomes; format: biochemical; conditions: 1.6 to 1000 μM in PBS with 1% DMSO
T1 construct: his-tag; made in house; host or cells: baculovirus-infected Sf9 cells
T1 sequence (Q9VYZ1 1-406): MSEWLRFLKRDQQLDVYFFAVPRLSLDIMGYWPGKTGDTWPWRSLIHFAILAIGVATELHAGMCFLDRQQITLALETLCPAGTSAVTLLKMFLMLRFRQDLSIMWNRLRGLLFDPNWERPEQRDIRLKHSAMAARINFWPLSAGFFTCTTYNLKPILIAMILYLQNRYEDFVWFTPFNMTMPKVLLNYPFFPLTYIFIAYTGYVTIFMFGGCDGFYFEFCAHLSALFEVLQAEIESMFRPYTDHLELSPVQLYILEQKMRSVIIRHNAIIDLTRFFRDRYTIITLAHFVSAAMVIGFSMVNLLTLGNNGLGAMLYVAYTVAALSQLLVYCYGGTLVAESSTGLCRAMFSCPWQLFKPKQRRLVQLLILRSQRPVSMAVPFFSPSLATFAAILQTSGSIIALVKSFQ
T1 sequence (Q9VNB5 1-486 partner): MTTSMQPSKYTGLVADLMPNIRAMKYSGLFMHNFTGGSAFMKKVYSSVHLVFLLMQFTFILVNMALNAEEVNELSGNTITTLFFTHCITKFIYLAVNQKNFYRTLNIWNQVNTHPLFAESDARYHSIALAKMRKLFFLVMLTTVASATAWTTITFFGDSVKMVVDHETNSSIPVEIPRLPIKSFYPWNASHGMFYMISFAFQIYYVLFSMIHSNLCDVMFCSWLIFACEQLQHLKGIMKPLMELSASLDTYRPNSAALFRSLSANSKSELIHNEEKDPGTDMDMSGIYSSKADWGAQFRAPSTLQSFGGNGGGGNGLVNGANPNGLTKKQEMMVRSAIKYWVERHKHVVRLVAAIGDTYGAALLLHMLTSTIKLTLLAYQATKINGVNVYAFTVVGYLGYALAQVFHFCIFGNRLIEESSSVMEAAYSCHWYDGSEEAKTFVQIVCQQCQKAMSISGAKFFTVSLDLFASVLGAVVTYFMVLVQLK
Protocol: Gold (100 nm) sensor crystals were sonicated in ethanol and milli-Q water for 15 minutes each respectively. A 5:1:1 volume ratio of milli-Q water, ammonia (25%), and hydrogen peroxide (30%) was heated to 75° C. for 5 minutes and the sonicated crystals were placed in the heated solution for 5 minutes. Then the crystals were removed from the solution and rinsed with milli-Q water before drying with nitrogen gas. The clean gold crystals were thiol-functionalized by exposing them to 2 mM ethanolic solution of MHA overnight followed by washing with ethanol solution in order to remove excess or loosely bound molecules. NHS/EDC was prepared using 2:1 mol:mol ratio of EDC:NHS (100 mM EDC, 50 mM NHS) in 2 ml PBS (pH=6.5) solution. Each OrX/liposome stock solution was diluted 100 fold for QCM-D measurements in PBS buffer solution (pH=7.4). The SAM functionalized crystals were then placed into the Q-sense analyser instrument (Biolin Scientific) chamber and flowed with the NHS/EDC, Or10a/liposomes or Or10a/Orco liposomes, and various concentrations of methyl hexanoate (1.6 μM, 8 μM, 20 μM, 40 μM, 100 μM, 200 μM, 500 μM and 1000 μM) in PBS buffer solution containing 1% DMSO to measure the changes in frequency (Δf) and dissipation (ΔD) values.

[1] = GFET sensor, empty liposomes (control); format: biochemical
Protocol: The OR liposomes were functionalised onto the graphene surface via a non-covalent route using PBASE as the molecular linker as shown in FIG. 13. The OR liposomes were diluted at 1:10 ratio with 1×PBS (pH7.4). The cleaned GFETs were immersed in 1 mM PBASE solution in methanol for 1 hour. The devices were washed three times in methanol and subsequently washed three times in 1×PBS to remove the excess PBASE and residual methanol in the channel respectively. The OR liposomes were diluted 1:10 with 1×PBS (pH 7.4) and 100 μL of the OR dilution was placed in the graphene channel and incubated at room temperature for one hour in a closed petri dish. After OR liposome functionalization, the devices were washed in 1×PBS for 10 s before measurements.
The OR liposome immobilised GFET device with a PDMS well mounted on it was placed onto the probe station and the source and drain connections were made by micromanipulators. 100 μl of PBS containing 1% dimethyl sulfoxide (DMSO) was added to the well and the Ag/AgCl standard electrode was placed into the buffer. The stock solution of ligands at 100 mM concentrations were prepared by dissolving them in DMSO as they are not stable in aqueous buffer. The stock solution was stored at 4° C. The ligand solution for sensing was prepared by diluting the stock solution in 1×PBS buffer containing 1% DMSO to set concentrations from 10 fM to 100 pM. […]

Compound	change in oscillation frequency on ligand exposure (Or10a/Orco)	sensor response to target ligand [1]
CCCCCC(=O)OC [methyl hexanoate]	negligible response; also recorded: not observed	lack of response
COC(=O)c1ccccc1O [methyl salicylate]	greater response; also recorded: increase in the frequency	lack of response
